Tests used:
[1] = Mortality before weaning, neonatal treatment
Excerpt: Treatment with either 7,8-DHFor vehicle began on postnatal day 3(P3). All mice that survived in the P0 to P3 period entered this study, with no specific selection criteria. Total of 185 mice entered the study (96 males and 89 females). The number of vehicle-treated and 7,8-DHF treated mice was 96 and 89, respectively.
The Ts65Dn strain is characterized by a high mortality rate during gestation (Roper et al., 2006). […] In the current study, treatment with either 7,8-DHF or vehicle began on postnatal day 3 (P3). All mice that survived in the P0 to P3 period entered this study, with no specific selection criteria.

[2] = Body and brain weight, neonatal treatment (P15, P45); assay type: in vivo, mouse
Protocol: Euploid and Ts65Dn mice received a daily subcutaneous injection (at 9-10 am) of 7,8-DHF (5.0 mg/kg in vehicle: PBS with 1% DMSO) or vehicle from postnatal day 3 (P3) to postnatal day 15. This timing was chosen because it corresponds to that previously used to test the effects of fluoxetine and other pharmacotherapies in the neonate Ts65Dn mouse (Bianchi et al., 2010b; Giacomini et al., 2015; Stagni et al., 2016). Mice that received 7,8-DHF will be called “treated mice” (treated euploid mice: n=25; treated Ts65Dn mice: n=15). Mice that received the vehicle will be called “untreated mice” (untreated euploid mice: n=35; untreated Ts65Dn mice: n=21). […] The brains were excised and cut along the midline. The left hemisphere of a group of mice was fixed by immersion in PFA 4% and frozen, and the left hemisphere of another group of mice was used for Golgi staining. The right hemispheres of all mice was kept at −80° C. and used for western blotting.
Euploid and Ts65Dn mice received a daily subcutaneous injection (at 9-10 am) of 7,8-DHF (5.0 mg/kg in vehicle) or vehicle from postnatal day 3 (P3) to postnatal day P45-P50. […] These mice will be called here P45 mice. Mice were behaviorally tested in the 6 days that preceded the day of sacrifice (FIG. 2B).
The body weight of mice of all groups was recorded prior to sacrifice and the brain weight was recorded immediately after brain removal. The number of animals used for each experimental procedure is specified in the figure legends and in Table 3.

[3] = Prenatal treatment: body and brain weight of P2 mice; assay type: in vivo, mouse; details: P2 Ts65Dn mice, embryonic treatment
Protocol: Ts65Dn females (n=4) were bred C57BL/6JEi×C3SnHeSnJ (B6EiC3) F1 males (n=4). Conception was determined by examining the vaginal plug. Pregnant females received a daily subcutaneous injection of either 7,8-DHF (Sigma-Aldrich) in PBS with 2% DMSO (dose: 5 mg/kg) or vehicle from the embryonic (E) day 10 (E10) to the day of delivery (E20/21). […] On postnatal day 2 (P2) the progeny of 7,8-DHF-treated and vehicle-treated females received an intraperitoneal injection (150 μg/g body weight) of BrdU (Sigma) in 0.9% NaCl solution and were killed after 2 h (on P2; 4-8 animals for each group). Vehicle-treated females and their progeny will be called hereafter untreated mice. The body weight of P2 mice was recorded prior to sacrifice. After sacrifice, brain was excised and weighed.

[4] = dose of 5.0 mg/kg, Liu et al., 2010; cited from earlier work
[5] = system: NPCs from the SVZ of Ts65Dn mice; assay: Differentiation of NPC cultures (MAP2/Nestin immunolocalization); assay type: cell-based, mouse; details: 96 h, differentiating conditions
Protocol: (§1) Cells were isolated from the subventricular zone (SVZ) of the lateral ventricle and the subgranular zone (SGZ) of the hippocampal dentate gyrus (DG) of newborn (P1-P2) euploid and Ts65Dn mice. Briefly, brains were removed, the SVZ and SGZ regions were isolated and individually collected in ice-cold PIPES buffer pH 7.4. After centrifugation, tissue was digested for 10 min at 37° C. using Trypsin/EDTA 0.25% (Life Technologies) aided by gentle mechanical dissociation. Cell suspension from each individual mouse was plated onto 25 cm^2 cell-culture flask (Thermo Fisher Scientific) and cultured as floating neurospheres in medium containing basic fibroblast growth factor (bFGF, 10 ng/ml; Peprotech) and epidermal growth factor (EGF, 20 ng/ml; Peprotech) using an established protocol (Meneghini et al., 2014). […] Cell proliferation was quantified as relative luminescence units (RLU) values using Cell Titer-Glo viability assay reagent (Promega) on aVictor^3-V plate reader (PerkinElmer). […] In each experiment, five fields/well (corresponding to about 150-200 cells/well) were counted with a 60× objective by a Leica DMIRB inverted fluorescence microscope. Immunoreactive cells were counted and their percentage over total viable cells was calculated. […]

[6] = system: NPCs from the SGZ of Ts65Dn mice; assay: Neuron maturation: cells exhibiting neuritic processes, SGZ NPCs; assay type: cell-based, mouse; details: 96 h, vs standard medium
Protocol: as §1

[7] = P15 Ts65Dn mice, 5.0 mg/kg s.c. daily P3-P15
[8] = P45 Ts65Dn mice, 5.0 mg/kg s.c. daily P3-P45

Which results are given for `O=c1cc(-c2ccccc2)oc2c(O)c(O)ccc12` [7,8-DHF, 7,8-dihydroxyflavone]?
adverse effects on the health of mice ([1]; mouse, in vivo): no adverse effects on the health of mice; mice that died before weaning ([1]; treatment from P3, deaths in the P6-P22 period, vehicle 7.3%): 5.6%; body weight [2, 7]: did not further reduce the body weight; brain weight [2, 7]: did not cause a further brain weight reduction; brain weight ([2]; P15 euploid mice, 5.0 mg/kg s.c. daily P3-P15, vs untreated): slight but significant brain weight reduction; body weight [2, 8]: did not further reduce their body weight; brain weight (reduction vs untreated euploid mice) [2, 8]: this difference disappeared; body weight ([2]; P45 euploid mice, 5.0 mg/kg s.c. daily P3-P45, vs untreated): body weight reduction; body weight [3]: did not further reduce the body weight; toxic effects [4]: no toxic effects; percentage of Nestin+/MAP2- cells [5]: no change; percentage of MAP2+/Nestin− cells ([5]; all concentrations, vs standard medium): large increase; concentrations that increased the percentage of cells exhibiting neuritic processes [6]: higher than 1.1 μM
